Results from PubChem BioAssay AID1963965 (Molecular Pharmacology Branch, DTP, NCI, 2024).

Tested on: 996289-038-R-J1-PDC spheroid viability
Assay: Anticancer human tumor 996289-038-R-J1-PDC patient-derived colon adenocarcinoma cell line growth inhibition [PI3K]
Details: spheroids with HUVEC and MSC; for viability, T/C: stronger effect = lower value
Summary of the method: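 Three cell types, namely tumor cells, endothelial cells and mesenchymal stem cells, formed each spheroid. Combinations with four PI3K inhibitors were screened at clinically achievable concentrations decreasing by half-log, and spheroid viability was recorded.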

[1] = curve of first compound, second compound 0.0316 µM
[2] = curve of first compound, second compound 0.1 µM
[3] = curve of first compound, second compound 0.316 µM
[4] = curve of first compound, second compound 1 µM
[5] = curve of first compound, second compound 3.16 µM
[6] = curve of first compound, second compound 10 µM
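Also: spheroids exposed to compounds for seven days before viability read.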
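For viability, T/C in this document: luminescence used as a proxy for viable cell amount; percent viability relative to DMSO vehicle control as 100%.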

Q: What does the source list for `Cn1cnc2c(F)c(Nc3ccc(Br)cc3Cl)c(C(=O)NOCCO)cc21` + CC(Nc1ncnc2nc[nH]c12)c1cc2cccc(Cl)c2c(=O)n1-c1ccccc1?
A: IC50 [1]: 207 nM; IC50 [2]: 166 nM; IC50 [3]: 225 nM; IC50 [4]: 218 nM; IC50 [5]: 161 nM; IC50 [6]: 114 nM; viability, T/C (second compound 0.0316 µM, first compound 0.00949 µM): 102%; viability, T/C (second compound 0.0316 µM, first compound 0.03 µM): 77.2%; viability, T/C (second compound 0.0316 µM, first compound 0.0949 µM): 67.1%; viability, T/C (second compound 0.0316 µM, first compound 0.3 µM): 39.3%; viability, T/C (second compound 0.0316 µM, first compound 0.949 µM): 33.5%; viability, T/C (second compound 0.0316 µM, first compound 3 µM): 21.2%; viability, T/C (second compound 0.1 µM, first compound 0.00949 µM): 94.4%; viability, T/C (second compound 0.1 µM, first compound 0.03 µM): 77%; viability, T/C (second compound 0.1 µM, first compound 0.0949 µM): 54.9%; viability, T/C (second compound 0.1 µM, first compound 0.3 µM): 42.8%; viability, T/C (second compound 0.1 µM, first compound 0.949 µM): 33.5%; viability, T/C (second compound 0.1 µM, first compound 3 µM): 23.9%; viability, T/C (second compound 0.316 µM, first compound 0.00949 µM): 108%; viability, T/C (second compound 0.316 µM, first compound 0.03 µM): 79.7%; viability, T/C (second compound 0.316 µM, first compound 0.0949 µM): 62.8%; viability, T/C (second compound 0.316 µM, first compound 0.3 µM): 45.1%; viability, T/C (second compound 0.316 µM, first compound 0.949 µM): 36.4%; viability, T/C (second compound 0.316 µM, first compound 3 µM): 21.2%; viability, T/C (second compound 1 µM, first compound 0.00949 µM): 85.5%; viability, T/C (second compound 1 µM, first compound 0.03 µM): 69%; viability, T/C (second compound 1 µM, first compound 0.0949 µM): 63.6%; viability, T/C (second compound 1 µM, first compound 0.3 µM): 43.9%; viability, T/C (second compound 1 µM, first compound 0.949 µM): 33.6%; viability, T/C (second compound 1 µM, first compound 3 µM): 19.2%; viability, T/C (second compound 3.16 µM, first compound 0.00949 µM): 83.5%; viability, T/C (second compound 3.16 µM, first compound 0.03 µM): 73.7%; viability, T/C (second compound 3.16 µM, first compound 0.0949 µM): 58.9%; viability, T/C (second compound 3.16 µM, first compound 0.3 µM): 37.7%; viability, T/C (second compound 3.16 µM, first compound 0.949 µM): 31.1%; viability, T/C (second compound 3.16 µM, first compound 3 µM): 18.2%; viability, T/C (second compound 10 µM, first compound 0.00949 µM): 94.1%; viability, T/C (second compound 10 µM, first compound 0.03 µM): 68.3%; viability, T/C (second compound 10 µM, first compound 0.0949 µM): 53.9%; viability, T/C (second compound 10 µM, first compound 0.3 µM): 36.2%; viability, T/C (second compound 10 µM, first compound 0.949 µM): 27%; viability, T/C (second compound 10 µM, first compound 3 µM): 13.9%

Q: How did the IC50 [1] turn out when `C#Cc1c(F)ccc2cc(O)cc(-c3ncc4c(N5CC6CCC(C5)N6)nc(OCC56CCCN5CC(F)C6)nc4c3F)c12` (stereo unspecified) + CC(Nc1ncnc2nc[nH]c12)c1cc2cccc(Cl)c2c(=O)n1-c1ccccc1 was run?
A: The IC50 was 1160 nM.

Q: And the IC50 [2]?
A: Its IC50 is 1510 nM.

Q: And the IC50 [3]?
A: Its IC50 is 1430 nM.

Q: And the IC50 [4]?
A: Its IC50 is 1040 nM.

Q: What about the IC50 [5] of the same compound?
A: Its IC50 is 681 nM.

Q: And the IC50 [6]?
A: The IC50 was 372 nM.

Q: What about the viability, T/C (second compound 0.0316 µM, first compound 0.0316 µM) of the same compound?
A: The viability, T/C was 101%.

Q: What about the viability, T/C (second compound 0.0316 µM, first compound 0.1 µM) of the same compound?
A: Its viability, T/C is 96.6%.

Q: And the viability, T/C (second compound 0.0316 µM, first compound 0.316 µM)?
A: Its viability, T/C is 69.7%.

Q: And the viability, T/C (second compound 0.0316 µM, first compound 1 µM)?
A: The viability, T/C was 52%.

Q: What about the viability, T/C (second compound 0.0316 µM, first compound 3.16 µM) of the same compound?
A: The viability, T/C was 45.6%.

Q: What about the viability, T/C (second compound 0.0316 µM, first compound 10 µM) of the same compound?
A: Its viability, T/C is 37.2%.

Q: And the viability, T/C (second compound 0.1 µM, first compound 0.0316 µM)?
A: Its viability, T/C is 90.4%.

Q: And the viability, T/C (second compound 0.1 µM, first compound 0.1 µM)?
A: The viability, T/C was 76.2%.

Q: What about the viability, T/C (second compound 0.1 µM, first compound 0.316 µM) of the same compound?
A: Its viability, T/C is 60.6%.

Q: And the viability, T/C (second compound 0.1 µM, first compound 1 µM)?
A: Its viability, T/C is 55.3%.

Q: And the viability, T/C (second compound 0.1 µM, first compound 3.16 µM)?
A: Its viability, T/C is 46.8%.

Q: What about the viability, T/C (second compound 0.1 µM, first compound 10 µM) of the same compound?
A: The viability, T/C was 33%.

Q: And the viability, T/C (second compound 0.316 µM, first compound 0.0316 µM)?
A: Its viability, T/C is 95.9%.

Q: And the viability, T/C (second compound 0.316 µM, first compound 0.1 µM)?
A: The viability, T/C was 81.8%.

Q: What about the viability, T/C (second compound 0.316 µM, first compound 0.316 µM) of the same compound?
A: The viability, T/C was 71.2%.

Q: And the viability, T/C (second compound 0.316 µM, first compound 1 µM)?
A: Its viability, T/C is 54%.

Q: And the viability, T/C (second compound 0.316 µM, first compound 3.16 µM)?
A: The viability, T/C was 40%.

Q: What about the viability, T/C (second compound 0.316 µM, first compound 10 µM) of the same compound?
A: Its viability, T/C is 33.7%.

Q: And the viability, T/C (second compound 1 µM, first compound 0.0316 µM)?
A: Its viability, T/C is 99.3%.

Q: What about the viability, T/C (second compound 1 µM, first compound 0.1 µM) of the same compound?
A: The viability, T/C was 79%.

Q: And the viability, T/C (second compound 1 µM, first compound 0.316 µM)?
A: Its viability, T/C is 59.8%.

Q: What about the viability, T/C (second compound 1 µM, first compound 1 µM) of the same compound?
A: The viability, T/C was 57.5%.

Q: And the viability, T/C (second compound 1 µM, first compound 3.16 µM)?
A: The viability, T/C was 35.6%.

Q: What about the viability, T/C (second compound 1 µM, first compound 10 µM) of the same compound?
A: The viability, T/C was 32.8%.

Q: What about the viability, T/C (second compound 3.16 µM, first compound 0.0316 µM) of the same compound?
A: Its viability, T/C is 92.3%.

Q: What about the viability, T/C (second compound 3.16 µM, first compound 0.1 µM) of the same compound?
A: The viability, T/C was 81.6%.

Q: And the viability, T/C (second compound 3.16 µM, first compound 0.316 µM)?
A: The viability, T/C was 63.2%.

Q: And the viability, T/C (second compound 3.16 µM, first compound 1 µM)?
A: Its viability, T/C is 42.6%.

Q: And the viability, T/C (second compound 3.16 µM, first compound 3.16 µM)?
A: The viability, T/C was 34.1%.

Q: And the viability, T/C (second compound 3.16 µM, first compound 10 µM)?
A: The viability, T/C was 27.6%.

Q: What about the viability, T/C (second compound 10 µM, first compound 0.0316 µM) of the same compound?
A: Its viability, T/C is 78.9%.

Q: What about the viability, T/C (second compound 10 µM, first compound 0.1 µM) of the same compound?
A: The viability, T/C was 74%.

Q: What about the viability, T/C (second compound 10 µM, first compound 0.316 µM) of the same compound?
A: The viability, T/C was 47.8%.

Q: And the viability, T/C (second compound 10 µM, first compound 1 µM)?
A: The viability, T/C was 37.9%.

Q: And the viability, T/C (second compound 10 µM, first compound 3.16 µM)?
A: The viability, T/C was 29.5%.

Q: What about the viability, T/C (second compound 10 µM, first compound 10 µM) of the same compound?
A: Its viability, T/C is 20.9%.

Q: With `Cn1cnc2c(F)c(Nc3ccc(Br)cc3Cl)c(C(=O)NOCCO)cc21` as the compound, how does the viability, T/C (compound 0.00949 µM) read?
A: Its viability, T/C is 89.3% [middle of 4 runs].

Q: And the viability, T/C (compound 0.03 µM)?
A: Its viability, T/C is 74.7% [middle of 4 runs].

Q: And the viability, T/C (compound 0.0949 µM)?
A: Its viability, T/C is 64% [middle of 4 runs].

Q: What about the viability, T/C (compound 0.3 µM) of the same compound?
A: The viability, T/C was 44.4% [middle of 4 runs].

Q: What about the viability, T/C (compound 0.949 µM) of the same compound?
A: The viability, T/C was 35.1% [middle of 4 runs].

Q: What about the viability, T/C (compound 3 µM) of the same compound?
A: The viability, T/C was 24.5% [middle of 4 runs].

Q: And the IC50 (curve of compound)?
A: The IC50 was 229 nM [middle of 4 runs].
